One assay has as its target T1, ENT1 (Homo sapiens, UniProt Q99808).
T1 sequence (Q99808 1-456): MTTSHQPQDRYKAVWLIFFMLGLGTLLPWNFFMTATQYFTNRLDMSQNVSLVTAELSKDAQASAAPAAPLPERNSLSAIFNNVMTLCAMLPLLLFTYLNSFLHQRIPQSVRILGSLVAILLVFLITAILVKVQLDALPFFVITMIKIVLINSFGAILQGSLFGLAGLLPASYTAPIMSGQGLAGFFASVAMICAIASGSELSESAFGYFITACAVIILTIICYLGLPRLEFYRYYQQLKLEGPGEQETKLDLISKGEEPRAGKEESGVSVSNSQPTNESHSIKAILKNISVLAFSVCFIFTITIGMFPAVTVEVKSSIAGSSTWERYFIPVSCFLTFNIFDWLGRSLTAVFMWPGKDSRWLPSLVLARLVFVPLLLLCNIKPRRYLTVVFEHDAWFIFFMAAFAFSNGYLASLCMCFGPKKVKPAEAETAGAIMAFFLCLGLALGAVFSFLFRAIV
Put plainly: Inhibition of [3H]uridine uptake into WT HeLa. The note with it: for inhibition at 20 µM: HeLa; for ENT1 % Inhibition (±SD): model-predicted compounds from MedChem Express Drug Repurposing Library. The class given is cell-based.

Another assay concerns the target T2, ENT2 (Homo sapiens, UniProt Q14542).
T2 sequence (Q14542 1-456): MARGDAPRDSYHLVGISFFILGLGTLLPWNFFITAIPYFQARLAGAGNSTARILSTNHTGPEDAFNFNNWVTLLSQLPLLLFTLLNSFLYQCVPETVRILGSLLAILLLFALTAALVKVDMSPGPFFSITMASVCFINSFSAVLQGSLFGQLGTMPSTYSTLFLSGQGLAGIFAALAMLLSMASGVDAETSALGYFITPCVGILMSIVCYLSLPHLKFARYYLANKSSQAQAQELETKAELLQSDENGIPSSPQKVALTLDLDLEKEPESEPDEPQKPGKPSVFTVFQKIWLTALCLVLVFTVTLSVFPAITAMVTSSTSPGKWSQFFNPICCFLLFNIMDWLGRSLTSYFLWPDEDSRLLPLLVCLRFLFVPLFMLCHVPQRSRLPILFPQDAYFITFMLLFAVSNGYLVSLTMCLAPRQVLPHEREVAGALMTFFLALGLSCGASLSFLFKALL
Put plainly: Inhibition of [3H]uridine uptake into HeLa FlpIn cells overexpressing hENT2. The class given is cell-based. The note with it: for inhibition at 20 µM: HeLa.

[1] abbreviates: read-out: ENT1 % Inhibition (±SD).
The mark [2] stands for this setting: read-out: ENT2 % Inhibition (20μM).
Setting [3] is: read-out: ENT1 % Inhibition (20μM).
Setting [4] is: read-out: ENT1 inhibition of uridine uptake (Spectrum screen, text).

Counter-ions that a name gives are not always drawn. Like-named read-outs stand apart in the source and are kept apart here.

What is called inhibition is the relative decrease from the control value, in per cent. As for `CCCCC1(CCCC)CN(c2ccccc2)c2cc(SC)c(OCC(=O)N[C@@H](C(=O)N[C@@H](CC)C(=O)O)c3ccc(O)cc3)cc2S(=O)(=O)N1` [Odevixibat], the inhibition at 20 µM at ENT1 (setting [1]) worked out at 78.3%.
What is called IC50 is the concentration needed to halve the response being measured. With `CCOC(=O)c1ncn2c1CN(C)C(=O)c1cc(F)ccc1-2` [flumazenil], the results for the IC50 on ENT2 and at ENT1 were 3.82 ± 0.3 µM and 121 ± 0.7 µM, respectively. Further, the figures for the inhibition at 20 µM on ENT2 (setting [2]) and at ENT1 (setting [3]) were 85.1% and 20%, respectively.
On the same counts, the results for `C[C@@H]1O[C@@H](O[C@H]2[C@H](Oc3cc(O)c4c(c3)O[C@H](c3ccc(O)cc3)CC4=O)O[C@H](CO)[C@@H](O)[C@@H]2O)[C@H](O)[C@H](O)[C@H]1O` [naringin] are 266 ± 81.5 µM, 101 ± 8.9 µM, 8.5% and 24.4%.
Consider `CC(=O)O[C@]1(C(C)=O)CC[C@H]2[C@@H]3C=C(C)C4=CC(=O)CC[C@@H]4[C@H]3CC[C@@]21C` [Nomegestrol acetate], for which, at ENT1 (setting [1]), the inhibition at 20 µM was determined as 82.9%.
Consider `C[C@]12CC[C@@H]3c4ccc(O)cc4CC[C@H]3[C@@H]1CC[C@H]2O` [Alpha-Estradiol], for which the inhibition at 20 µM on ENT1 (setting [1]) amounted to 77.2%.
Regarding `O=c1c(O)c(-c2ccc(O)c(O)c2)oc2cc(O)cc(O)c12` [quercetin], the results for the IC50 at ENT2 and against ENT1 were 117 ± 24.6 µM and 20.6 ± 6.8 µM, respectively. The inhibition at 20 µM at ENT2 (setting [2]) came out at 84.3%; at ENT1 (setting [3]), 53.1%.
As for `C/C=C/c1cc(OC)c(OC)cc1OC` [alpha-Asarone], on ENT1 (20 μM), the “ENT1 % Inhibition (±SD)” value is given as 52.42 (3.92) %.
`CCCCc1nc(Cl)c(CO)n1Cc1ccc(-c2ccccc2-c2nn[nH]n2)cc1` [losartan]: the 50% inhibitory concentration (IC50) against ENT2 worked out at 172 ± 60.2 µM. The inhibition at 20 µM on ENT2 (setting [2]) was determined as 33%.
As for `COc1cccc(-c2nccc3[nH]c(=O)c(-c4noc(C)n4)cc23)c1` [Radequinil], at ENT1 (20 μM), the “ENT1 % Inhibition (±SD)” value is on record as 98.17 (0.19) %.
Take `COc1cc(C[C@H]2C(=O)OC[C@@H]2Cc2ccc(OC)c(OC)c2)ccc1O` [Arctigenin]: at ENT1 (setting [1]), the inhibition at 20 µM turned out to be 67.5%.
In the case of `CCn1c(=O)c2c(nc(/C=C/c3ccc(OC)c(OC)c3)n2C)n(CC)c1=O` [Istradefylline], the inhibition at 20 µM at ENT1 (setting [1]) is 96.1%.
Still for that read-out and setting: the result for `Cc1cccc(-c2nn3c(c2-c2ccnc4ccc(C(N)=O)cc24)CCC3)n1` [Galunisertib] reads 56.2%; that for `COc1cccc(-c2cc(F)c(Nc3ncccc3C(=O)O)c(F)c2)c1` [Farudodstat], 86.8%.
Regarding `C#CCOc1ccc(/C=C/C(=O)Nc2ccccc2C(=O)O)cc1OC` [FT011], the “ENT1 % Inhibition (±SD)” value on ENT1 (20 μM) is given as 54.94 (2.47) %.
In the case of `CC(=O)[C@H]1CC[C@H]2[C@@H]3C[C@H](C)C4=CC(=O)CC[C@]4(C)[C@H]3[C@@H](O)C[C@]12C` [medrysone], the IC50 against ENT2 stood at 210 ± 89.2 µM; against ENT1 it was 4.44 ± 0.9 µM. Moreover, the inhibition at 20 µM on ENT2 (setting [2]) was determined as 56.3%; on ENT1 (setting [3]), 95.1%.
Take `O=C(O[C@@H]1Cc2c(O)cc(O)cc2O[C@@H]1c1ccc(O)c(O)c1)c1cc(O)c(O)c(O)c1` [Epicatechin gallate]: the midpoint of inhibition against ENT1, the IC50, lay at 4 µM. In addition, the inhibition at 20 µM at ENT1 (setting [4]) was ~85%.
Regarding `CC[C@@H](C(=O)Nc1ccc(C(N)=O)c(F)c1)n1cc(OC)c(-c2cc(Cl)ccc2-n2cc(C(F)(F)F)nn2)cc1=O` [Asundexian], at ENT1 (20 μM), the “ENT1 % Inhibition (±SD)” value was 95.39 (0.23) %.
As for `COc1cc2c(cc1OC)-c1c/c(=N\c3c(C)cc(C)cc3C)n(CCNC(N)=O)c(=O)n1CC2` [Ensifentrine], the inhibition at 20 µM at ENT1 (setting [1]) amounted to 98.2%.
As to `C=CC[C@@H]1/C=C(\C)C[C@H](C)C[C@H](OC)[C@H]2O[C@@](O)(C(=O)C(=O)N3CCCC[C@H]3C(=O)O[C@H](/C(C)=C/[C@@H]3CC[C@@H](O)[C@H](OC)C3)[C@H](C)[C@@H](O)CC1=O)[C@H](C)C[C@@H]2OC` [tacrolimus], the inhibition at 20 µM was 35% on ENT2 (read-out: ENT2 inhibition of transport activity (Spectrum screen, text)) and ~80% at ENT1 (setting [4]).
Consider `CO[C@H]1C[C@@H]2CC[C@@H](C)[C@@](O)(O2)C(=O)C(=O)N2CCCC[C@H]2C(=O)O[C@H]([C@H](C)C[C@@H]2CC[C@@H](OCCO)[C@H](OC)C2)CC(=O)[C@H](C)/C=C(\C)[C@@H](O)[C@@H](OC)C(=O)[C@H](C)C[C@H](C)/C=C/C=C/C=C/1C` [Everolimus], for which, at ENT1 (setting [1]), the inhibition at 20 µM is 92%.
On the same count and under the same terms, the result for `CCOc1ccc2c(-c3cccc(F)c3)nn(CC(=O)N(C)c3ccc4nc(C)oc4c3)c(=O)c2c1` [CFTR corrector 2] reads 98%; that for `CCCOc1ccc(S(=O)(=O)N2CCN(CCO)CC2)cc1-c1nc2c(CCC)cn(CC)c2c(=O)[nH]1` [Mirodenafil (dihydrochloride), Mirodenafil], 79.3%.
`COc1ccc(S(=O)(=O)Nc2cc(-c3c(O)ccc4ccccc34)c(O)c3ccccc23)cc1` [C188-9]: the “ENT1 % Inhibition (±SD)” value on ENT1 (20 μM) was 72.99 (5.06) %.
With `COC(=O)C1=C(C)NC(C)=C(C(=O)OC)C1c1ccccc1[N+](=O)[O-]` [Nifedipine], at ENT1 (setting [1]), the inhibition at 20 µM came to 72.6%.
On to `COc1ccc(-c2c(Cl)ncn2-c2ccc(S(N)(=O)=O)cc2)cc1F` [Cimicoxib], for which, at ENT1 (setting [1]), the inhibition at 20 µM amounted to 57.3%.
On the same count and under the same terms, the result for `Cc1c(OCC(F)(F)F)ccnc1C[S@@+]([O-])c1nc2ccccc2[nH]1` [(R)-Lansoprazole] reads 73.6%; that for `CO[C@H]1CC[C@H](n2c([C@@H]3CCCC(=O)N3c3ccc(F)c(F)c3)nc3cc(-c4c(C)noc4C)ccc32)CC1` [Inobrodib], 91.4%; that for `COc1ccc(CN=c2[nH]c(N3CCC[C@H]3CO)ncc2C(=O)NCc2ncccn2)cc1Cl` [Avanafil], 100%.
Take `COc1cc2ncnc(Nc3ccc(F)c(Cl)c3)c2cc1OCCCN1CCOCC1` [gefitinib]: at ENT2 (setting [2]), the inhibition at 20 µM turned out to be 54.6%.
On to `COc1ccc2[nH]c([S+]([O-])Cc3ncc(C)c(OC)c3C)nc2c1` (stereo not drawn) [Omeprazole (sodium), Omeprazole], for which the inhibition at 20 µM on ENT1 (setting [1]) worked out at 51.3%.
In the case of `COc1cc(O)cc(O)c1C(=O)c1ccccc1` [isocotoin], on ENT1 (20 μM, Spectrum Collection screen (Table S1)), the “ENT1 inhibition of uridine uptake (Spectrum screen, text)” value is ~ 65%. Further, the IC50 on ENT1 (read-out: predicted IC50 for ENT1, predicted from inhibition at 20 μM) was 12 µM.
Regarding `COc1cccc(C(=O)COc2ccc(CC3SC(=O)NC3=O)cc2)c1` (stereo not drawn) [Azemiglitazone], the “ENT1 % Inhibition (±SD)” value on ENT1 (20 μM) is 74.95 (4.00) %.
With `CCn1cnc2c(-c3ccc(F)c(-c4ccc(S(=O)(=O)CC)cc4OC)c3)cnnc21` [PF-06372865], the “ENT1 % Inhibition (±SD)” value at ENT1 (20 μM) is 100.45 (0.02) %.
With `Oc1ccc(C2=Cc3ccc(O)cc3OC2)cc1` [Phenoxodiol], on ENT1 (setting [1]), the inhibition at 20 µM amounted to 69.3%.
Still for that read-out and setting: in the case of `COc1cc(-c2cnc3cc(OCCN4CCOCC4)ccn23)cc2c1C(=O)N(CC(F)(F)F)CC2` [GLPG3970] it was 68.1%; in that of `COC(=O)C1=C(C)NC(C)=C(C(=O)OC(C)C)C1c1cccc2nonc12` (stereo not drawn) [Isradipine], 92.7%.
Still for that read-out and setting: the result for `COC(=O)C1=C(C)NC(C)=C(C(=O)OCCN(C)Cc2ccccc2)C1c1cccc([N+](=O)[O-])c1` (stereo not drawn) [Nicardipine (hydrochloride), Nicardipine] reads 76.8%.
Take `C#Cc1cccc(Nc2ncnc3cc(OC)c(OCCCN4CCOCC4)cc23)c1` [NRC-2694]: on ENT1 (20 μM), the “ENT1 % Inhibition (±SD)” value is on record as 67.27 (11.1) %.
As for `Cc1ccc(C(=O)Nc2ccc(Oc3cc4cnn(C)c4cc3-c3cn[nH]c3)c(F)c2)c(=O)n1-c1ccc(F)cc1.Cl.Cl` [Merestinib dihydrochloride], the “ENT1 % Inhibition (±SD)” value on ENT1 (20 μM) is 58.49 (4.13) %.
Same read-out and setting: in the case of `COc1cc(C(=O)c2c(C)oc3c(O)c(OC)ccc23)cc(OC)c1OC` [BNC105] it was 97.87 (1.06) %.
Regarding `COc1cc(/C=C/c2ccc(O)cc2)cc(OC)c1` [Pterostilbene], the inhibition at 20 µM at ENT1 (setting [1]) came to 54.7%.
Same read-out and setting: in the case of `C=CC(=O)N1CCC(c2ccc(C(N)=O)c(-c3ccc(Oc4ccccc4)cc3)n2)CC1` [Orelabrutinib] it was 87.5%.
Same read-out and setting: the result for `COC(=O)c1cc(OC)c2c(c1-c1c(CO)cc(OC)c3c1OCO3)OCO2` [Bicyclol] reads 72.3%; that for `COc1cc(OC)c2c(=O)[nH]c(-c3cc(C)c(OCCO)c(C)c3)nc2c1` [Apabetalone], 88.1%.
Same read-out and setting: in the case of `CNc1nc(-c2cccc(NC(=O)c3ccc(C(=O)OC)cc3)c2)c2cc(OC)c(OC)cc2n1` [Lotamilast] it was 81.3%.
As to `COc1cc([C@H]2Oc3cc([C@H]4Oc5cc(O)cc(O)c5C(=O)[C@@H]4O)ccc3O[C@@H]2CO)ccc1O` [Silybin A], at ENT1 (setting [1]), the inhibition at 20 µM came to 67.5%.
Consider `COc1cc2c(Nc3ccc(Br)cc3F)ncnc2cc1OCC1CCN(C)CC1` [Vandetanib], for which the inhibition at 20 µM on ENT1 (setting [1]) came to 50.3%.

The values above are taken from publication PMC12486301 (The Journal of pharmacology and experimental therapeutics, 2025).
